Measured values reported in US9353075B2, “Disubstituted beta-lactones as inhibitors of N-acylethanolamine acid amidase (NAAA)” (The Regents of the University of California, priority 2011, dated 2016).

How the values were obtained:
r-NAAA = r-NAAA (Rattus norvegicus (Rat), UniProt Q5KTC7); assay: r-NAAA inhibition, rat lung lysosomal NAAA preparation, UPLC/MS; type: biochemical; details: for inhibition at 3 µM: read-out: r-NAAA % inhib. @ 3 μM
Procedure: Lysosomal NAAA protein preparation were obtained by homogenizing male Sprague-Dawley rat lungs (Charles River) in 20 mM Tris-HCl buffer pH 7.4 containing 0.32M sucrose. Samples were centrifuged at 800×g for 15 minutes at 4° C. Supernatants were then centrifuged at 12,000 g for 30 minutes at 4° C. Pellets were then resuspended in PBS pH 7.4 and subjected to a freeze/thaw cycle at −80° C. The suspension was finally centrifuged at 105,000×g for 1 hour at 4° C. The supernatant was then used in the enzymatic assay.
NAAA protein preparation was pre-incubated with various concentrations of test compounds or vehicle control in 100 mM NaH2PO4/Citrate buffer, 1% Triton-X, 3 mM DTT (pH 4.5) for 30 minutes at 37° C. Samples were then incubated with heptadecenoylethanolamide (50 μM, Avanti Polar Lipids) at 37° C. for 30 min. The reaction was terminated by addition of cold methanol containing heptadecanoic acid (NuCheck Prep) as internal standard. Samples were then analyzed by UPLC/MS (Acquity, Waters). Heptadecenoic and heptadecanoic acids were eluted on an Acquity UPLC BEH C18 column (50 mm length, 2.1 mm i.d., 1.7 μm pore size, Waters) isocratically at 0.5 mL/min for 1.5 min with a solvent mixture of 95% methanol and 5% water, both containing 0.25% Acetic Acid and 5 mM Ammonium Acetate. The column temperature was 40° C. Electrospray ionization was in the negative mode, capillary voltage was 0.5 kV, cone voltage was […], desolvation temperature was 500° C. N2 was used as drying gas at a flow rate of 1000 L/hour and a temperature of 500° C. The [M−H]^− ion was monitored in the selected-ion monitoring mode (m/z values: heptadecenoic acid 267.37, heptadecanoic acid 269.37). Calibration curves were generated using commercial heptadecenoic acid (NuCheck Prep). Inhibition of NAAA activity was calculated as reduction of heptadecenoic acid in the samples compared to vehicle controls. IC50 values were calculated by non-linear regression analysis of log [concentration]/inhibition curves using GraphPad Prism 5 (GraphPad Software Inc., CA—USA) applying a standard slope curve fitting.

h-NAAA [1] = molecular target: T1, h-NAAA (Homo sapiens (Human), UniProt Q02083); assay: Fluorogenic h-NAAA assay; type: biochemical
T1 sequence (Q02083 29-359): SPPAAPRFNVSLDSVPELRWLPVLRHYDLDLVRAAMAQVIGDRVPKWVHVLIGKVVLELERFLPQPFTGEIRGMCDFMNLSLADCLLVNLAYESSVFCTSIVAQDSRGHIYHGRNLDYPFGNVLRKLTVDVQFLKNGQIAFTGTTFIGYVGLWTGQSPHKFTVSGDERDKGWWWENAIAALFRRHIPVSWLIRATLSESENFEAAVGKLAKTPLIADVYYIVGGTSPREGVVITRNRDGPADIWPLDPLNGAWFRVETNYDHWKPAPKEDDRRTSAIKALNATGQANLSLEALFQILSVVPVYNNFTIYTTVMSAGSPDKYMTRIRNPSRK
Procedure: (§1) The assay was run in Optiplate 96-wells black plates, in a total reaction volume of 200 mL. NAAA protein preparations (4 ng) were pre-incubated for 10 minutes with various concentrations of test compounds or vehicle control (5% DMSO) in 100 mM citrate/phosphate buffer (pH 4.5) containing 3.0 mM DTT, 0.1% Triton X-100, 0.05% BSA, 150 mM NaCl. N-(4-methyl-2-oxo-chromen-7-yl)-hexadecanamide was used as a substrate (5.0 μM) and the reaction carried over for 30 minutes at 37° C. Fluorescence in the samples was quantified in a Perkin Elmer Envision plate reader using an excitation wavelength of 360 nm and emission 460 nm. IC50 values were calculated by non-linear regression analysis of log [concentration]/inhibition curves using GraphPad Prism 5 (GraphPad Software Inc., CA—USA) applying a standard slope curve fitting.
as §1, with “μL.” for “mL.”, “preparation (4.0 μg) was” for “preparations (4 ng) were”, “min” for “minutes”, “The” for “Fluorescence in the”, “were then read” for “was quantified”

DNFB-induced scratching = DNFB-induced scratching in mice; type: in vivo, mouse; details: topical, single dose
Procedure: The methods included the following. Dermatitis was produced in mice using 2-4 dinitrofluorobenzene (DNFB) as described by Buckley and Nijkamp (1994), Am J Respir Grit Care Med 149:400-7. Mice were sensitized on two consecutive days with a 0.5% DNFB solution applied to the shaved abdomen. At day 8, the ears were challenged with a 0.2% DNFB solution. Ear thickness was determined by using a micrometer. Scratching was evaluated as number of episodes per 60 minutes period. Data were analysed by ANOVA followed by the Bonferroni's test. See also Hargreaves K, et al (1988), Pain 32: 77-88 for related information.
The methods include the following. Itching in mice was induced with DNFB as previously described. Additional studies were done with 48/80 model (an inducer of mast cell degranulation). 48/80 was given subcutaneously (30 mg per kg). Data were analysed by ANOVA followed by Bonferroni's test for multiple comparisons.

[2] = test system: 48/80-induced scratching (mast cell degranulation); assay: Compound 48/80-induced scratching in mice; type: in vivo, mouse; details: topical, single dose, 48/80 30 mg per kg s.c.
Procedure: The methods include the following. Itching in mice was induced with DNFB as previously described. Additional studies were done with 48/80 model (an inducer of mast cell degranulation). 48/80 was given subcutaneously (30 mg per kg).

[3] = Chemical stability in PBS buffer pH 7.4; type: physicochemical; details: phosphate-buffered saline, 0.01M PBS pH 7.4, 37° C., read-out: Stability in PBS buffer, pH 7.4 t1/2
Procedure: Chemical stability of select compounds was evaluated under physiological pH conditions (0.01M Phosphate-Buffered Saline, pH 7.4) for up to 24 h. Stock solutions of each compound (10 mM) were prepared freshly in DMSO. Each compound was incubated at a final concentration of 10 μM (1% DMSO) in pre-heated buffer (0.01M Phosphate-Buffered Saline (PBS), pH 7.4 at 37° C.). The sample solutions were divided into aliquots in glass vials (pre-heated at 37° C.) for each time point. The samples were maintained at 37° C. in the UPLC/MS Autosampler during the study (no shaking). A reference solution of each compound (final concentration: 10 μM at 1% DMSO) in pre-heated CH3CN (37° C.) was prepared from the stock solutions (10 mM in DMSO). The reference solutions were maintained at 37° C. in the UPLC/MS Autosampler during the study (no shaking). An internal standard (100 nM) was added to the sample and reference solutions. For each time point, the samples were analyzed directly by LC/MS without any further sample preparation. The samples were analyzed (triplicate injection) by monitoring the MS trace by Multiple Reaction Monitoring (MRM). The compound concentration (expressed as %) was calculated by dividing the peak area at each time point by the peak area at t=0 min. The reference solution was analyzed at the beginning (t=0 min.), and at the end of the study (t=24 h). The apparent half-lives (t1/2) of the disappearance of compound were calculated by a one-phase decay equation using a non-linear regression of compound concentration versus time.
The analyses were performed on a Waters ACQUITY UPLC/MS TQD system consisting of a TQD (Triple Quadropole Detector) Mass Spectrometer equipped with an Electrospray Ionization interface and a Photodiode Array Detector. The analyses were run on an ACQUITY UPLC BEH C18 1.7 μm 2.1×50 mm column with a VanGuard BEH C18 1.7 μm pre-column at 40° C. The mobile phase was 0.1% HCOOH in H2O (A) and 0.1% HCOOH in CH3CN (B) using a linear gradient: 0-0.2 min.: 5% B, 0.2-2.2 min.: 5-95% B, 2.2-2.3 min.: 95-5% B, 2.3-3 min.: 5% B with flow rate at 0.5 mL/min. […]

h-NAAA [4] = molecular target: T1, h-NAAA; assay: UPLC/MS h-NAAA assay; type: biochemical
Procedure: NAAA protein preparation (10 μg) was pre-incubated with various concentrations of test compound or vehicle control in 100 mM NaH2PO4, 100 mM Tri Sodium Citrate Dehydrate, 0.1% Triton-X 100, 3 mM DTT, pH 4.5 for 30 min at 37° C. Duplicate samples were then incubated with 50 μM C17:1 10-cis-heptadecenoylethanolamide (Avanti Polar Lipids, Alabaster, Ala.—USA) at 37° C. for 30 minutes. The reaction was terminated by the addition of 0.2 mL of cold methanol containing 1 nmol of heptadecanoic acid (NuChek Prep, Elysian, Minn.—USA) as internal standard. Samples were then analyzed by UPLC/MS. Heptadecenoic and heptadecanoic acids were eluted on an Acquity UPLC BEH C18 column (50 mm length, 2.1 mm i.d., 1.7 μm pore size, Waters) isocratically at 0.5 mL/min for 1.5 min with a solvent mixture of 95% methanol and 5% water, both containing 0.25% Acetic Acid and 5 mM Ammonium Acetate. The column temperature was 40° C. Electrospray ionization was in the negative mode, capillary voltage was 2.7 kV, cone voltage was 45 V, extractor voltage was 3 V. The source temperature was 150° C. with a desolvation temperature of 400° C. N2 was used as drying gas at a cone flow of 100 L/hour and a desolvation flow of […]. The [M−H]-ion was monitored in the selected-ion monitoring mode (m/z values: heptadecenoic acid 267.37, heptadecanoic acid 269.37). Calibration curves were generated using commercial heptadecenoic acid (NuCheck Prep) Inhibition of NAAA activity was calculated as reduction of heptadecenoic acid in the samples compared to vehicle controls. IC50 values were calculated by non-linear regression analysis of log [concentration]/inhibition curves using GraphPad Prism 5 (GraphPad Software Inc., CA—USA) applying a standard slope curve fitting.

Sequence of r-NAAA (Q5KTC7 34-362): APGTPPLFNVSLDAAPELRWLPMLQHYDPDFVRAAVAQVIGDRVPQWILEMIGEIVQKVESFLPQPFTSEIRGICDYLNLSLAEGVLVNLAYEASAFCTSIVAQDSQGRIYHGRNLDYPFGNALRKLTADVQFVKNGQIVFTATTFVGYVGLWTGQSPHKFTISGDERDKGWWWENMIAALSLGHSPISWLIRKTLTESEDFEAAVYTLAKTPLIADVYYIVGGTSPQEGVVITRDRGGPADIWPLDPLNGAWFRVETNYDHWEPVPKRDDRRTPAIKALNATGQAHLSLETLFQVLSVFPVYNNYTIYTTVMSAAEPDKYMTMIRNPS

Row | inhibition at 3 µM (r-NAAA) [%] | IC50 (h-NAAA [1]) [nM] | SMILES | DNFB-induced scratching (DNFB-induced scratching) | 48/80-induced scratching [2] | other results
1 | 98 | 12 | CC(C)[C@H]1OC(=O)[C@@H]1NC(=O)OC(C)(C)CCCCc1ccccc1 (relative stereo) [Example 55, (1,1-Dimethyl-5-phenyl-pentyl)-N-[(2R*,3R*)-2-isopropyl-4-oxo-oxetan-3-yl]-carbamate] | – | – | –
2 | 75 | 267 | CC(C)(C)[C@H]1OC(=O)[C@@H]1NC(=O)OCCCCCc1ccccc1 (relative stereo) [Example 56, 5-Phenylpentyl-N-[(2R*,3R*)-2-tert-butyl-4-oxo-oxetan-3-yl]-carbamate] | – | – | –
3 | 67 | 278 | CC(C)(C)[C@@H]1OC(=O)[C@@H]1NC(=O)OCCCCCc1ccccc1 (relative stereo) [Example 58, 5-Phenylpentyl-N-[(2S*,3R*)-2-tert-butyl-4-oxo-oxetan-3-yl]-carbamate] | – | – | –
4 | 92 | 4 | CC[C@H]1OC(=O)[C@@H]1NC(=O)OCCCCCc1ccccc1 (relative stereo) [Example 47, 5-Phenylpentyl-N-[(2R*,3R*)-2-ethyl-4-oxo-oxetan-3-yl]-carbamate] | – | – | –
5 | 89 | 9 | CC[C@@H]1OC(=O)[C@@H]1NC(=O)OCCCCCc1ccccc1 (relative stereo) [Example 49, 5-Phenylpentyl-N-[(2S*,3R*)-2-ethyl-4-oxo-oxetan-3-yl]-carbamate] | – | – | –

Second part, the compound before the results:

Row | SMILES | inhibition at 3 µM (r-NAAA) [%] | IC50 (h-NAAA [1]) [nM] | DNFB-induced scratching (DNFB-induced scratching) | 48/80-induced scratching [2] | other results
6 | C[C@@H]1C[C@H]2[C@@H]3CCC4=CC(=O)C=C[C@]4(C)[C@@]3(F)[C@@H](O)C[C@]2(C)[C@@]1(O)C(=O)CO [dexamethasone, reference compound] | – | – | increased scratching | without effect | –
7 | CC(CN1c2ccccc2Sc2ccccc21)N(C)C (centres unmarked) [promethazine, reference compound] | – | – | without effect | effective | –
8 | O=C(N[C@H]1COC1=O)OCCCCCc1ccccc1 | – | – | – | – | half-life at 10 μM [3]: 23 min
9 | C[C@H]1C[C@H]2[C@@H]3CCC4=CC(=O)C=C[C@]4(C)[C@@]3(F)[C@@H](O)C[C@]2(C)[C@@]1(O)C(=O)CCl [clobetasol, reference compound] | – | – | increased scratching | without effect | –
10 | C[C@@H]1OC(=O)[C@@H]1NC(=O)OCCCCC1CCCCC1 [Example 19, 4-cyclohexylbutyl-N-[(2S,3R)-2-methyl-4-oxo-oxetan-3-yl]-carbamate] | – | 8 | – | – | IC50 (r-NAAA): 20 nM; IC50 (h-NAAA [4]): 9 nM
